{
  "source": "patent US12077503B2",
  "about": "“Substituted cyclic amides and their use as herbicides” (FMC CORPORATION, priority 2015, dated 2024)",
  "test_in_all_cases": "Test C preemergence",
  "type_in_all_cases": "in vivo",
  "key": {"[1]": {"system": "barnyardgrass (Echinochloa crus-galli)", "conditions": "for Plant response rating (scale of 0 to 100), Barnyardgrass: 0 is no effect, 100 is complete control", "summary_of_the_method": "(§1)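 Assessment: visual, 13–15 d after treatment, 0 (no effect) to 100 (complete control) relative to controls. Treatment: preemergence to seeds in loam-sand soil, or postemergence to 1- to 4-leaf plants in peat-based medium. Formulation: non-phytotoxic solvent mixture with surfactant.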"}, "corn (Zea mays)": {"system": "corn (Zea mays)", "conditions": "for Plant response rating (scale of 0 to 100), Corn: 0 is no effect, 100 is complete control", "summary_of_the_method": "as §1"}, "[2]": {"system": "ryegrass, Italian (Italian ryegrass, Lolium multiflorum)", "conditions": "for Plant response rating (scale of 0 to 100), Ryegrass, Italian: 0 is no effect, 100 is complete control", "summary_of_the_method": "as §1"}, "[3]": {"system": "johnsongrass (Sorghum halepense)", "conditions": "for Plant response rating (scale of 0 to 100), Johnsongrass: 0 is no effect, 100 is complete control", "summary_of_the_method": "as §1"}, "soybean (Glycine max)": {"system": "soybean (Glycine max)", "conditions": "for Plant response rating (scale of 0 to 100), Soybean: 0 is no effect, 100 is complete control", "summary_of_the_method": "as §1"}, "[4]": {"system": "pigweed (Amaranthus retroflexus)", "conditions": "for Plant response rating (scale of 0 to 100), Pigweed: 0 is no effect, 100 is complete control", "summary_of_the_method": "as §1"}, "[5]": {"system": "wheat (winter wheat, Triticum aestivum)", "conditions": "for Plant response rating (scale of 0 to 100), Wheat: 0 is no effect, 100 is complete control", "summary_of_the_method": "as §1"}, "[6]": {"system": "lambsquarters (Chenopodium album)", "conditions": "for Plant response rating (scale of 0 to 100), Lambsquarters: 0 is no effect, 100 is complete control", "summary_of_the_method": "as §1"}, "[7]": {"system": "waterhemp (common waterhemp, Amaranthus rudis)", "conditions": "for Plant response rating (scale of 0 to 100), Waterhemp: 0 is no effect, 100 is complete control", "summary_of_the_method": "as §1"}, "[8]": {"system": "velvetleaf (Abutilon theophrasti)", "conditions": "for Plant response rating (scale of 0 to 100), Velvetleaf: 0 is no effect, 100 is complete control", "summary_of_the_method": "as §1"}, "[9]": {"system": "oilseed rape (Brassica napus)", "conditions": "for Plant response rating (scale of 0 to 100), Oilseed Rape: 0 is no effect, 100 is complete control", "summary_of_the_method": "as §1"}, "[10]": {"system": "crabgrass, large (large crabgrass, Digitaria sanguinalis)", "conditions": "for Plant response rating (scale of 0 to 100), Crabgrass, Large: 0 is no effect, 100 is complete control", "summary_of_the_method": "as §1"}, "[11]": {"system": "ragweed (common ragweed, Ambrosia elatior)", "conditions": "for Plant response rating (scale of 0 to 100), Ragweed: 0 is no effect, 100 is complete control", "summary_of_the_method": "as §1"}, "[12]": {"system": "Galium (catchweed bedstraw, Galium aparine)", "conditions": "for Plant response rating (scale of 0 to 100), Galium: 0 is no effect, 100 is complete control", "summary_of_the_method": "as §1"}, "[13]": {"system": "foxtail, giant (giant foxtail, Setaria faberii)", "conditions": "for Plant response rating (scale of 0 to 100), Foxtail, Giant: 0 is no effect, 100 is complete control", "summary_of_the_method": "as §1"}, "[14]": {"system": "morningglory (Ipomoea coccinea)", "conditions": "for Plant response rating (scale of 0 to 100), Morningglory: 0 is no effect, 100 is complete control", "summary_of_the_method": "as §1"}, "[15]": {"conditions": "62 g ai/ha, scale 0 to 100, 0 no effect, 100 complete control"}},
  "data": [
    {"smiles": "CN1C[C@H](c2ccc(C(F)(F)F)cc2)[C@@H](C(=O)Nc2cccc(F)c2F)C1=O", "note": "[Compound 623, (3S,4S)—N-(2,3-difluorophenyl)-1-methyl-2-oxo-4-[4-(trifluoromethyl)phenyl]-3-pyrrolidinecarboxamide]", "values": [
      {"measurement": "Plant response rating (scale of 0 to 100), Barnyardgrass", "setting": "[1]; 8 g ai/ha", "result": 90},
      {"measurement": "Plant response rating (scale of 0 to 100), Barnyardgrass", "setting": "[1]; 16 g ai/ha", "result": 90},
      {"measurement": "Plant response rating (scale of 0 to 100), Barnyardgrass", "setting": "[1]; 31 g ai/ha", "result": 90},
      {"measurement": "Plant response rating, Barnyardgrass", "setting": "[1]; [15]", "result": 95},
      {"measurement": "Plant response rating (scale of 0 to 100), Corn", "setting": "corn (Zea mays); 8 g ai/ha", "result": 10},
      {"measurement": "Plant response rating (scale of 0 to 100), Corn", "setting": "corn (Zea mays); 16 g ai/ha", "result": 30},
      {"measurement": "Plant response rating (scale of 0 to 100), Corn", "setting": "corn (Zea mays); 31 g ai/ha", "result": 60},
      {"measurement": "Plant response rating, Corn", "setting": "corn (Zea mays); [15]", "result": 65},
      {"measurement": "Plant response rating (scale of 0 to 100), Ryegrass, Italian", "setting": "[2]; 8 g ai/ha", "result": 0},
      {"measurement": "Plant response rating (scale of 0 to 100), Ryegrass, Italian", "setting": "[2]; 16 g ai/ha", "result": 20},
      {"measurement": "Plant response rating (scale of 0 to 100), Ryegrass, Italian", "setting": "[2]; 31 g ai/ha", "result": 45},
      {"measurement": "Plant response rating, Ryegrass, Italian", "setting": "[2]; [15]", "result": 55},
      {"measurement": "Plant response rating (scale of 0 to 100), Johnsongrass", "setting": "[3]; 8 g ai/ha", "result": 50},
      {"measurement": "Plant response rating (scale of 0 to 100), Johnsongrass", "setting": "[3]; 16 g ai/ha", "result": 15},
      {"measurement": "Plant response rating (scale of 0 to 100), Johnsongrass", "setting": "[3]; 31 g ai/ha", "result": 50},
      {"measurement": "Plant response rating, Johnsongrass", "setting": "[3]; [15]", "result": 70},
      {"measurement": "Plant response rating (scale of 0 to 100), Soybean", "setting": "soybean (Glycine max); 8 g ai/ha", "result": 0},
      {"measurement": "Plant response rating (scale of 0 to 100), Soybean", "setting": "soybean (Glycine max); 16 g ai/ha", "result": 0},
      {"measurement": "Plant response rating (scale of 0 to 100), Soybean", "setting": "soybean (Glycine max); 31 g ai/ha", "result": 0},
      {"measurement": "Plant response rating, Soybean", "setting": "soybean (Glycine max); [15]", "result": 0},
      {"measurement": "Plant response rating (scale of 0 to 100), Pigweed", "setting": "[4]; 8 g ai/ha", "result": 75},
      {"measurement": "Plant response rating (scale of 0 to 100), Pigweed", "setting": "[4]; 16 g ai/ha", "result": 85},
      {"measurement": "Plant response rating (scale of 0 to 100), Pigweed", "setting": "[4]; 31 g ai/ha", "result": 85},
      {"measurement": "Plant response rating, Pigweed", "setting": "[4]; [15]", "result": 85},
      {"measurement": "Plant response rating (scale of 0 to 100), Wheat", "setting": "[5]; 8 g ai/ha", "result": 20},
      {"measurement": "Plant response rating (scale of 0 to 100), Wheat", "setting": "[5]; 16 g ai/ha", "result": 0},
      {"measurement": "Plant response rating (scale of 0 to 100), Wheat", "setting": "[5]; 31 g ai/ha", "result": 40},
      {"measurement": "Plant response rating, Wheat", "setting": "[5]; [15]", "result": 35},
      {"measurement": "Plant response rating (scale of 0 to 100), Lambsquarters", "setting": "[6]; 8 g ai/ha", "result": 10},
      {"measurement": "Plant response rating (scale of 0 to 100), Lambsquarters", "setting": "[6]; 16 g ai/ha", "result": 30},
      {"measurement": "Plant response rating (scale of 0 to 100), Lambsquarters", "setting": "[6]; 31 g ai/ha", "result": 60},
      {"measurement": "Plant response rating, Lambsquarters", "setting": "[6]; [15]", "result": 50},
      {"measurement": "Plant response rating (scale of 0 to 100), Waterhemp", "setting": "[7]; 8 g ai/ha", "result": 45},
      {"measurement": "Plant response rating (scale of 0 to 100), Waterhemp", "setting": "[7]; 16 g ai/ha", "result": 75},
      {"measurement": "Plant response rating (scale of 0 to 100), Waterhemp", "setting": "[7]; 31 g ai/ha", "result": 85},
      {"measurement": "Plant response rating, Waterhemp", "setting": "[7]; [15]", "result": 90},
      {"measurement": "Plant response rating (scale of 0 to 100), Velvetleaf", "setting": "[8]; 8 g ai/ha", "result": 0},
      {"measurement": "Plant response rating (scale of 0 to 100), Velvetleaf", "setting": "[8]; 16 g ai/ha", "result": 0},
      {"measurement": "Plant response rating (scale of 0 to 100), Velvetleaf", "setting": "[8]; 31 g ai/ha", "result": 5},
      {"measurement": "Plant response rating, Velvetleaf", "setting": "[8]; [15]", "result": 60},
      {"measurement": "Plant response rating (scale of 0 to 100), Oilseed Rape", "setting": "[9]; 8 g ai/ha", "result": 80},
      {"measurement": "Plant response rating (scale of 0 to 100), Oilseed Rape", "setting": "[9]; 16 g ai/ha", "result": 0},
      {"measurement": "Plant response rating (scale of 0 to 100), Oilseed Rape", "setting": "[9]; 31 g ai/ha", "result": 30},
      {"measurement": "Plant response rating, Oilseed Rape", "setting": "[9]; [15]", "result": 85},
      {"measurement": "Plant response rating (scale of 0 to 100), Crabgrass, Large", "setting": "[10]; 8 g ai/ha", "result": 90},
      {"measurement": "Plant response rating (scale of 0 to 100), Crabgrass, Large", "setting": "[10]; 16 g ai/ha", "result": 90},
      {"measurement": "Plant response rating (scale of 0 to 100), Crabgrass, Large", "setting": "[10]; 31 g ai/ha", "result": 95},
      {"measurement": "Plant response rating, Crabgrass, Large", "setting": "[10]; [15]", "result": 95},
      {"measurement": "Plant response rating (scale of 0 to 100), Ragweed", "setting": "[11]; 8 g ai/ha", "result": 0},
      {"measurement": "Plant response rating (scale of 0 to 100), Ragweed", "setting": "[11]; 16 g ai/ha", "result": 20},
      {"measurement": "Plant response rating (scale of 0 to 100), Ragweed", "setting": "[11]; 31 g ai/ha", "result": 45},
      {"measurement": "Plant response rating, Ragweed", "setting": "[11]; [15]", "result": 75},
      {"measurement": "Plant response rating (scale of 0 to 100), Galium", "setting": "[12]; 8 g ai/ha", "result": 90},
      {"measurement": "Plant response rating (scale of 0 to 100), Galium", "setting": "[12]; 16 g ai/ha", "result": 85},
      {"measurement": "Plant response rating (scale of 0 to 100), Galium", "setting": "[12]; 31 g ai/ha", "result": 85},
      {"measurement": "Plant response rating, Galium", "setting": "[12]; [15]", "result": 90},
      {"measurement": "Plant response rating (scale of 0 to 100), Foxtail, Giant", "setting": "[13]; 8 g ai/ha", "result": 85},
      {"measurement": "Plant response rating (scale of 0 to 100), Foxtail, Giant", "setting": "[13]; 16 g ai/ha", "result": 90},
      {"measurement": "Plant response rating (scale of 0 to 100), Foxtail, Giant", "setting": "[13]; 31 g ai/ha", "result": 90},
      {"measurement": "Plant response rating, Foxtail, Giant", "setting": "[13]; [15]", "result": 90},
      {"measurement": "Plant response rating (scale of 0 to 100), Morningglory", "setting": "[14]; 8 g ai/ha", "result": 0},
      {"measurement": "Plant response rating (scale of 0 to 100), Morningglory", "setting": "[14]; 16 g ai/ha", "result": 0},
      {"measurement": "Plant response rating (scale of 0 to 100), Morningglory", "setting": "[14]; 31 g ai/ha", "result": 25},
      {"measurement": "Plant response rating, Morningglory", "setting": "[14]; [15]", "result": 15}
    ]}
  ]
}
